Key:
[1] = test system: GLP-1 receptor; experiment: ELISA assay of secreted GLP-1 forms (mSTC-1 GLP-1 sec CRC); format: cell-based; conditions: mSTC-1 cells, GLP-1 secretion, concentration-response curve, ELISA readout, FIG. 1; read-out: action as a GLP-1 receptor agonist (mSTC-1 GLP-1 sec CRC)
Method: The biological activity of the synthesised compounds was measured with an ELISA assay.
The biological activity of the compound (5S*,9R*)-9-phenyl-3-phenylacetyl-4-oxa-1,3-diazabicyclo[3.3.1]non-6-ene (Ib) as a GLP-1 receptor agonist was measured via an ELISA assay specifically modified in order to identify the forms of GLP-1 secreted.

## O=C(Cc1ccccc1)N1CN2CC=C[C@H](O1)[C@H]2c1ccccc1 (relative stereo) [Ib, (5S*,9R*)-9-phenyl-3-phenylacetyl-4-oxa-1,3-diazabicyclo[3.3.1]non-6-ene]
[1]
  EC50: 11 µM
other
  melting point: 156 to 159 °C

## CC[C@@H]1[C@@H]2C=CCN1CN(C(=O)Cc1ccccc1)O2 (relative stereo) [If, (5S*,9R*)-9-ethyl-3-phenylacetyl-4-oxa-1,3-diazabicyclo[3.3.1]non-6-ene]
other
  melting point: 68 to 70 °C
